The target of data set [1] is T1, Purified recombinant EGF (Homo sapiens, UniProt P01133).
T1 construct: purchased ThermoFisher PHG0311L
Kind of data set: Membrane binding assay, EGF. The protocol:
(§1) A membrane binding assay was performed to test the binding affinities of modified oligonucleotides to EGF and EGFR. Purified recombinant EGF (PHG0311L, ThermoFisher) or EGFR protein (PV3872, ThermoFisher) were incubated with FITC-labeled phosphorothioate oligonucleotide, compound no. 256903 or FITC-labeled phosphate oligonucleotide, PO-ASO, in binding buffer (20 mM Tris-HCl, pH 7.5, 150 mM NaCl, 1 mM DTT, 10% glycerol) for 1 hr at 37° C. Each reaction contained purified EGF at 3 nM to 3 μM or recombinant EGFR at 5 nM to 150 nM. Samples were loaded onto a hyband ECL nitrocellulose membrane (GE Healthcare) and soaked in wash buffer (20 mM Tris-HcCl, pH 7.5, 250 mM NaCl). Protein-bound ASOs were transferred to the membrane by applying a vaccum in a 96-well Bio-Rad Bio-Dot apparatus. After washing, membranes were air-dried and scanned using a phoshoimager (GE Healthcare). Kds were calculated for compound no. 256903 using Prism. The results below represent an average of three replicate experiments. […] In contrast, compound no. 256903 bound to both EGF and EGFR, with a higher affinity for EGFR than for EGF.

The target of data set [2] is T1, Purified recombinant EGF. Kind of data set: Membrane binding assay, EGF. The settings on record: [EGF] 2.5 nM.
Data set [3] addresses T2, EGFR (Homo sapiens, UniProt P00533). Kind of data set: Membrane binding assay, EGFR. The arrangement: purchased ThermoFisher PV3872. The protocol: as §1
Data set [4] addresses T2, EGFR. Nature of the data set: Membrane binding assay, EGFR. Further details: purchased ThermoFisher PV3872. The note with it: EGFR 2.3 nM (head prints [EGF]).

In the oligonucleotide strings, read from the 5' end, every base follows the letter of its sugar. An asterisk marks phosphorothioate; unmarked linkages are phosphodiester. Other units and linkages are bracketed, terminal groups are in braces. A string of capitals states the bases alone. e = 2'-O-(2-methoxyethyl) (MOE); {FITC} = fluorescein label; [5mC] = 5-methylcytosine; d = 2'-deoxy (DNA)

T1 sequence (P01133 971-1023 limits assumed): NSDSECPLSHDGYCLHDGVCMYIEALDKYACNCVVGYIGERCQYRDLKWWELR

For the substance “FITC-^mCesTesGes^mCesTesAdsGds^mCds^mCdsTds^mCdsTdsGdsGdsAdsTesTesTesGesAe (antisense {FITC}-e[5mC]*eT*eG*e[5mC]*eT*dA*dG*d[5mC]*d[5mC]*dT*d[5mC]*dT*dG*dG*dA*eT*eT*eT*eG*eA) [compound 256903]”, in the data set with Purified recombinant EGF [1] (EGF 3 nM to 3 μM), the “interaction with EGF” value is listed as “bound”. Moreover, the “Relative intensity (%)” value in the data set with Purified recombinant EGF [1] ([EGF] 5 nM) is on record as 10.2%; in the data set with Purified recombinant EGF [1] ([EGF] 10 nM), 12.0%; with Purified recombinant EGF [1] ([EGF] 20.9 nM), 12.8%; with Purified recombinant EGF [1] ([EGF] 41.9 nM) it was 13.7%; with Purified recombinant EGF [1] ([EGF] 93.8 nM), 15.7%; with Purified recombinant EGF [1] ([EGF] 187.5 nM), 17.0%. The “Relative intensity (%)” value is reported as 22.3% in the data set with Purified recombinant EGF [1] ([EGF] 375 nM); 72.3% with Purified recombinant EGF [1] ([EGF] 750 nM); 95.2% with Purified recombinant EGF [1] ([EGF] 1500 nM); 97.3% with Purified recombinant EGF [1] ([EGF] 3000 nM); 8.8% with Purified recombinant EGF [2]; 9.0% with EGFR [3] (EGFR 4.7 nM (head prints [EGF])). The “Relative intensity (%)” value with EGFR [3] (EGFR 9.4 nM (head prints [EGF])) was found to be 9.0%; with EGFR [3] (EGFR 18.8 nM (head prints [EGF])) it was 10.3%; with EGFR [3] (EGFR 37.5 nM (head prints [EGF])), 40.5%; with EGFR [3] (EGFR 75 nM (head prints [EGF])) it was 80.0%; with EGFR [3] (EGFR 150 nM (head prints [EGF])), 102.7%; with EGFR [4], 7.0%. Further, the equilibrium dissociation constant (Kd) with Purified recombinant EGF [1] (binding affinity for EGF, average of three replicate experiments) was found to be 570 ± 170 nM; in the data set with EGFR [3] (binding affinity for EGFR, average of three replicate experiments), 51.5 ± 9.3 nM. For the same substance, the “interaction with EGFR” value in the data set with EGFR [3] (EGFR 5 nM to 150 nM) is given as “bound”.

Broadly, the Kd is the constant that tells how readily two partners part at equilibrium.

For the origin of these results see patent US20200407717A1, “METHODS OF MODULATING ANTISENSE ACTIVITY” (Ionis Pharmaceuticals, Inc., priority 2018, published 2020).
